In assay [1] the target is T1, human AT1 receptor (angiotensin II type 1 receptor) (Homo sapiens, UniProt P30556, C289S).
T1 construct: gene AGTR1; full-length receptor transfected in HEK293A cells; AT1 (human)-mCherry plasmid for NFAT assay
T1 sequence (P30556 1-359 C289S): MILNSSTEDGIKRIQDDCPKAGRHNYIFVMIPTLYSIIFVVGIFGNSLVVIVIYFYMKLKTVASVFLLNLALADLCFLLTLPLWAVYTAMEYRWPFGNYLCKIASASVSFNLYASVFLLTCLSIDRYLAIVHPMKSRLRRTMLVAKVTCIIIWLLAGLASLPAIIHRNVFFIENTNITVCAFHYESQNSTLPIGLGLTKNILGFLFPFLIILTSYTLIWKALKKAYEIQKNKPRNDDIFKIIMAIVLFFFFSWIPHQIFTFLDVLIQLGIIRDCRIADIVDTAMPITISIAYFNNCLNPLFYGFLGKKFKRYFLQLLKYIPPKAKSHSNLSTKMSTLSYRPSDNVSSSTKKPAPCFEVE
Nature of the assay: […]-Ang II competition binding, membranes.

In assay [2] the target is T2, human AT1 receptor (angiotensin II type 1 receptor) (Homo sapiens, UniProt P30556).
T2 construct: gene AGTR1; full-length receptor transfected in HEK293A cells; AT1 (human)-mCherry plasmid for NFAT assay
T2 sequence (P30556 1-359): T1 sequence (P30556 1-359 C289S) with S289C
Nature of the assay: […]-Ang II competition binding, membranes.

Assay [3] addresses T3, human AT1 receptor (angiotensin II type 1 receptor) (Homo sapiens, UniProt P30556, R167A).
T3 construct: gene AGTR1; full-length receptor transfected in HEK293A cells; AT1 (human)-mCherry plasmid for NFAT assay
T3 sequence (P30556 1-359 R167A): T1 sequence (P30556 1-359 C289S) with R167A, S289C
The assay can be described thus: […]-Ang II competition binding, membranes.

Assay [4] concerns the target T2, human AT1 receptor (angiotensin II type 1 receptor). Nature of the assay: Ca2+ flux, Fluo-3-AM, HEK293A cells. It counts as cell-based.

Each structure is given as a SMILES string. Positions count from the first letter of the chain named.

For `NC(CCS)C(=O)O` (racemic) [Hcy], the results for the inhibition constant (Ki) in assay [1], in assay [2] and in assay [3] were 159 µM, 10.7 µM and 92 µM, respectively. In assay [4], this compound had an EC50 of 81.3 µM.

The values above are taken from paper PMC5750214 (Nature Communications, 2018).
